Results from patent publication US20090233893A1, “Methods of Dissolving Beta-Sheet Proteins and Uses Thereof” (priority 2006, published 2009).
Where “and” joins values, the source holds several entries; their conditions need not be identical. Equal entries are not always repeated. Marks after values point to notes of the source that are not given here.

Tests used:
Aβ 40 wild type peptide = biological target: T1, Aβ 40 wild type peptide (Homo sapiens, UniProt P05067); test: Dissolution of Aβ 40 wild type peptide by metallized chelator, FTIR amide bands; assay type: biochemical; settings: Aβ40 wt dissolved in 500 mM chelator/heavy water solution
T1 construct: The amide I band for the Aβ 40 wild type peptide; gift of Dr. Jorge Ghiso
Description: (§1) Each metal salt-chelator solution was prepared with a slight excess of metal salt. Chelator-dissolved proteins were then lyophilized twice to eliminate water and resuspended in 200 μl aliquots of heavy water for spectral analysis.
(§2) Fourier Transform Infrared (FTIR) Spectroscopy: Metal chelator-dissolved β-sheet samples were injected into a sample cell with calcium fluoride windows and 0.05 mm path length. The instrument (Nicolet Magna JR 560 Spectrometer, ThermoNicolet, Madison, Wis.) resolution was 4 cm^−1; 1000 scans were collected.
(§3) Spectral subtraction as well as curve fitting and second derivative analysis of the amide I bands was carried out with the software program, Grams/32 Spectral Notebase, version 4.02, level 1 (ThermoNicolet, Madison, Wis.). Curvefitting parameters were not restricted; the fraction of Lorentzian line shape was allowed to vary. The second derivative analysis was carried out using a Savitsky-Golay algorithm, using either a third or fourth degree polynomial fit.

[1] = biological target: T2, Aβ 40 E22Q mutant peptide (Homo sapiens, UniProt P05067, E693Q); test: Dissolution of Aβ 40 E22Q mutant peptide by metallized chelator, FTIR amide bands; assay type: biochemical; settings: Aβ40 E22Q dissolved in 500 mM chelator/heavy water solution
T2 sequence (P05067 672-711 E693Q): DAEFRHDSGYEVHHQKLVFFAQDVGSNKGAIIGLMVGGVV
Description: as §1, §2, §3

Aβ 42 wild type peptide = biological target: T3, Aβ 42 wild type peptide (Homo sapiens, UniProt P05067); test: Dissolution of Aβ 42 wild type peptide by metallized chelator, FTIR amide bands; assay type: biochemical; settings: Aβ42 wt dissolved in 500 mM chelator/heavy water solution
T3 construct: The amide I band for the Aβ 42 wild type peptide in the solid state; gift of Dr. Jorge Ghiso
Description: as §1, §2, §3

[2] = biological target: T4, Aβ 42 E22Q mutant peptide (Homo sapiens, UniProt P05067, E693Q); test: Dissolution of Aβ 42 E22Q mutant peptide by metallized chelator, FTIR amide bands; assay type: biochemical; settings: Aβ42 E22Q dissolved in 500 mM chelator/heavy water solution
T4 sequence (P05067 672-713 E693Q): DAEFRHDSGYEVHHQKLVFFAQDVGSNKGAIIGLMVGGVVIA
Description: as §1, §2, §3

wool = wool tertiary structure is a bundle of α-helices; selectivity
Description: Wool's tertiary structure is a bundle of α-helices. […] The polyproline II conformation of collagen places its dihedral angles in the immediate vicinity of those for the β-sheet structure on a Ramachandran plot. Thus, choice of cation confers selectivity.

B. mori fibroin = settings: for Dissolution of fibroin: basic 500 mM solution, 1:1 molar ratio
[3] = system: tau paired helical filaments; settings: basic 500 mM solution, 1:1 molar ratio
human erythrocytes = settings: Funder et al., 1978; cited from earlier work
Aβ 40 E22Q = Aβ 40 E22Q (Homo sapiens, UniProt P05067, E693Q); assay type: biochemical; settings: Aβ 40 E22Q incubated at room temperature for 67 hours, pH 7.4
[4] = Environmental Protection Agency (1999); cited from earlier work

Compound	Amide I peak of metal chelator-dissolved peptide (Aβ 40 wild type peptide)	Amide II peak of metal chelator-dissolved peptide (Aβ 40 wild type peptide) [cm⁻¹]	Amide I peak of metal chelator-dissolved peptide [1]	Amide II peak of metal chelator-dissolved peptide [1] [cm⁻¹]	Amide I peak of metal chelator-dissolved peptide (Aβ 42 wild type peptide)	Amide II peak of metal chelator-dissolved peptide (Aβ 42 wild type peptide)	Amide I peak of metal chelator-dissolved peptide [2]	Amide II peak of metal chelator-dissolved peptide [2] [cm⁻¹]	Dissolution of wool (wool)	Dissolution of fibroin (B. mori fibroin)	Dissolution of paired helical filaments [3]	Increase of lithium influx into human erythrocytes over lithium chloride (human erythrocytes)	Thioflavin T fluorescence yield less than that of the chelator-free aliquot (Aβ 40 E22Q) [%]	Speed of the dissolution process for the silk or fibroin fiber (B. mori fibroin; judged by eye, more rapid than in the Li^+ ethylene diamine bromide solution)	Toxicity, EPA determination [4]
NCCN.[Br-].[Li+] [Li^+en, Li^+ ethylene diamine bromide]	1629 cm⁻¹ and 1646 cm⁻¹ and 1673 cm⁻¹	1562	1621‡ cm^−1 and 1673 cm^−1	1531	1626‡ cm^−1 and 1673 cm^−1	1562 cm⁻¹	1625‡ cm^−1 and 1673 cm^−1	1531	not found to dissolve	can be dissolved	can be dissolved	–	–	–	–
O=C([O-])O.[Li+] [Lithium bicarbonate]	–	–	–	–	–	–	–	–	–	–	–	twelve-fold	–	–	–
NCCN.[Cu+2].[OH-].[OH-] [Cu^2+en, Cu^2+ ethylene diamine hydroxide]	1673 cm⁻¹	1594	1673 cm⁻¹	1590	1673 cm⁻¹	1534 cm⁻¹ and 1591 cm⁻¹	1673 cm⁻¹	1590	not found to dissolve	can be dissolved	can be dissolved	–	27	instantaneous on contact	safe for human consumption
